Values quoted from earlier work as cited in patent US20100317631A1, “Gel Composition and Transcrotal Application of a Composition for the Treatment of Hypogonadism” (Dr. August Wolff GmbH & Co. Arzneimittel, priority 2000, published 2010).

[1] = intra muscular, standard dosage 250 mg

In the case of `CCCCCCC(=O)O[C@H]1CC[C@H]2[C@@H]3CCC4=CC(=O)CC[C@]4(C)[C@H]3CC[C@]12C` [testosterone enanthat], the terminal half-time value (intra muscular administration) is listed as 4.5 days, the “testosterone concentrations in serum achieved” value [1] is listed as “up to 50 nmol/l” and the “time at which serum testosterone passes the lower limit of normal range” value [1] is listed as greater than 12 days.
